# Residues, ends and D or L forms follow the SMILES beside them. No end group written: not given here. *: point of attachment. Succinimide(1-Et,3-yl) = CCN1C(=O)CC(*)C1=O
# Target: T1, human CRHR2 (Homo sapiens, UniProt Q13324)
# T1 construct: expressed in transfected cells
# T1 sequence (Q13324 1-411): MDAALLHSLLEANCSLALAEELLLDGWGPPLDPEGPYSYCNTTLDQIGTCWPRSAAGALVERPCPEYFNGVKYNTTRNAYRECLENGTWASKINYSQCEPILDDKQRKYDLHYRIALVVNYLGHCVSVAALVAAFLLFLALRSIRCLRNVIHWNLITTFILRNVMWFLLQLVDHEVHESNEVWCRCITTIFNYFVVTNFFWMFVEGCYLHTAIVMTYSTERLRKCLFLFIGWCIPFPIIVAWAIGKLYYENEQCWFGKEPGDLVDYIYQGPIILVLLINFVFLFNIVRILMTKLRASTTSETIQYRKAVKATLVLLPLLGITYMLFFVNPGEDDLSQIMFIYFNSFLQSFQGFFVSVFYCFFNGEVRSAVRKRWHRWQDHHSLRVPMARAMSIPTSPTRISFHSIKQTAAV
# Assay: cAMP assay in h-CRHR2 transfected SK-N-MC cells
# Format: cell-based
# Settings: Table 12; Hill slope
# Experimental: The concentration required for 50% maximum effect (A50) was 0.4 nM.
# Human CRHR1 (accession number X72304) or CRHR2 (accession number U34587) were cloned into pcDNA3.1/Zeo expression vector and stably transfected into SK-N-MC cells by electroporation. Cells were maintained in MEM w/Earl's Salt with 10% FBS, 50 I.U. penicillin, 50 μg/ml streptomycin, 2 mM L-glutamine, 1 mM sodium pyruvate and 0.1 mM nonessential amino acids, 600 μg/ml G418. Cells were grown at 37° C. in 5% CO2.
# Cells were plated in 96-well tissue culture dishes (Biocoat from BD Biosciences) overnight at 50,000 cell/well. Cells were washed with PBS then resuspended in DMEM F-12 without phenol red, containing 10 μM isobutylmethylxanthine (IBMX). Cells were incubated with the peptides at concentrations ranging from 1 pM to 10 μM for 60 min at 37° Celsius. […] Forskolin (10 μM), a direct stimulant of adenylate cyclase, was used as positive control. The assays were stopped by the addition of 0.5 M HCl and mixing by orbital rotation for 2 h at 4° Celsius.
# To assess the activity of the inventive peptide at the CRHR2, an intracellular cAMP measurement test using a Flash plate radioactive assay (Catalog No. Cus56088; Perkin Elmer, MA, U.S.A.) was employed.
# Transfected SK-N-MC cells were plated in 96-well Biocoat tissue culture dishes (BD Biosciences, San Jose, Calif., U.S.A) overnight at 50,000 cell/well. Cells were first washed with PBS and then suspended with DMEM/F-12 without phenol red, containing […]. Suspended cells were transferred into a 96-well flash plate coated with scintillant fluid. Cells were incubated with peptides ranging from […], for 60 min, at 37° Celsius. Forskolin at 10 μM was used as positive control. After ligand stimulation, cells were lysed by the addition of 0.5M HCl and mixed by orbital rotation for 2 h at 4° Celsius in order to release intracellular cAMP into the media.
# Media containing released intracellular cAMP was transferred to a 96-well flash plate coated with scintillant fluid containing an anti-cAMP antibody. In this assay, intracellular cAMP competes with ^125I-labeled cAMP binding to the antibody. To generate a standard curve, cAMP ranging from 2.5 to 250 pmoles/ml was included in the experiment. [^125I]-cAMP was measured on a TopCount scintillation counter (Perkin Elmer, MA, U.S.A).
# Individual agonist concentration-response curve data were fitted to the Hill equation, see formula below, using GraphPad Prism (Graphpad Software, La Jolla, Calif., U.S.A.), to provide estimates of agonist concentration needed to generate one-half maximal response (A50), and the maximal asymptote (α) and Hill slope (nH) parameters. In this equation, [A] is the agonist concentration and E is the measured effect:
# For display purposes the mean fitted parameter estimates were used to generate a single E/[A] curve shown superimposed on the mean experimental data. Potency estimates for agonists, pA50, are expressed as the negative logarithm of the midpoint of each curve and listed with their standard error of measurement (SEM). Logarithm base 10 of the agonist dose ratio (Log DR) values were calculated by subtraction of the test compound pA50 value from the corresponding h-SCP (SEQ ID NO:1) control pA50 value within the same assay batch. The SEM values of the Log DR values are given by the square root of the sum of the squared SEM values of the h-SCP (SEQ ID NO:1) control and test compound pA50 values.
# Human and rat peptides (see Table 10) were used on the stimulation of h-CRHR1 or h-CRHR2 transfected SK-N-MC cells in the cAMP flash plate assay. Peptides were incubated for 1 hr at 37° Celsius. Curves were calculated using non-linear regression sigmoidal concentration-response analysis calculation in GraphPad Prism. The so obtained pA50 values are shown in Table 11 in addition to literature values. […]
row,Compound,nH
1,"KFTLSLDVPTNIMNLLFNIAKAKNLRAQAAANAHLMAQI-NH2 [SEQ ID NO: 107, KFTLSLDVPTNIMNLLFNIAKAKNLRAQAAANAHLMAQI-NH2]",1.07

# Same assay, conditions: Table 13; h-SCP control pA50 minus test compound pA50 within same assay batch
row,Compound,Log DR
1,"CC[C@H](C)[C@H](NC(=O)[C@H](CCC(N)=O)NC(=O)[C@H](C)NC(=O)[C@H](CCSC)NC(=O)[C@H](CC(C)C)NC(=O)[C@H](Cc1c[nH]cn1)NC(=O)[C@H](C)NC(=O)[C@H](CC(N)=O)NC(=O)[C@H](C)NC(=O)[C@H](C)NC(=O)[C@H](C)NC(=O)[C@H](CCC(N)=O)NC(=O)[C@H](C)NC(=O)[C@H](CCCNC(=N)N)NC(=O)[C@H](CC(C)C)NC(=O)[C@H](CC(N)=O)NC(=O)[C@H](CCCCN)NC(=O)[C@H](C)NC(=O)[C@H](CCCCN)NC(=O)[C@H](C)NC(=O)[C@@H](NC(=O)[C@H](CC(N)=O)NC(=O)[C@H](Cc1ccccc1)NC(=O)[C@H](CSC1CC(=O)N(CC)C1=O)NC(=O)[C@H](CC(C)C)NC(=O)[C@H](CC(N)=O)NC(=O)[C@H](CCSC)NC(=O)[C@@H](NC(=O)[C@H](CC(N)=O)NC(=O)[C@@H](NC(=O)[C@@H]1CCCN1C(=O)[C@@H](NC(=O)[C@H](CC(=O)O)NC(=O)[C@H](CC(C)C)NC(=O)[C@H](CO)NC(=O)[C@H](CC(C)C)NC(=O)[C@@H](NC(=O)[C@H](Cc1ccccc1)NC(=O)[C@H](CCCCN)NC(=O)[C@@H](N)[C@@H](C)O)[C@@H](C)O)C(C)C)[C@@H](C)O)[C@@H](C)CC)[C@@H](C)CC)C(N)=O (stereo partly drawn) [SEQ ID NO: 53, TKFTL SLDVP TNIMN LC(-NES)FNI AKAKN LRAQA AANAH LMAQI-NH2] (H-TKFTLSLDVPTNIMNLC(Succinimide(1-Et,3-yl))FNIAKAKNLRAQAAANAHLMAQI-NH2; N-terminus assumed)",~2.22
2,"CC[C@H](C)[C@H](NC(=O)[C@H](CCC(N)=O)NC(=O)[C@H](C)NC(=O)[C@H](CCSC)NC(=O)[C@H](CC(C)C)NC(=O)[C@H](Cc1c[nH]cn1)NC(=O)[C@H](C)NC(=O)[C@H](CC(N)=O)NC(=O)[C@H](C)NC(=O)[C@H](C)NC(=O)[C@H](C)NC(=O)[C@H](CCC(N)=O)NC(=O)[C@H](C)NC(=O)[C@H](CCCNC(=N)N)NC(=O)[C@H](CC(C)C)NC(=O)[C@H](CC(N)=O)NC(=O)[C@H](CCCCN)NC(=O)[C@H](C)NC(=O)[C@H](CCCCN)NC(=O)[C@H](C)NC(=O)[C@@H](NC(=O)[C@H](CC(N)=O)NC(=O)[C@H](Cc1ccccc1)NC(=O)[C@H](CC(C)C)NC(=O)[C@H](CSC1CC(=O)N(CC)C1=O)NC(=O)[C@H](CC(N)=O)NC(=O)[C@H](CCSC)NC(=O)[C@@H](NC(=O)[C@H](CC(N)=O)NC(=O)[C@@H](NC(=O)[C@@H]1CCCN1C(=O)[C@@H](NC(=O)[C@H](CC(=O)O)NC(=O)[C@H](CC(C)C)NC(=O)[C@H](CO)NC(=O)[C@H](CC(C)C)NC(=O)[C@@H](NC(=O)[C@H](Cc1ccccc1)NC(=O)[C@H](CCCCN)NC(=O)[C@@H](N)[C@@H](C)O)[C@@H](C)O)C(C)C)[C@@H](C)O)[C@@H](C)CC)[C@@H](C)CC)C(N)=O (stereo partly drawn) [SEQ ID NO: 54, TKFTL SLDVP TNIMN C(-NES)LFNI AKAKN LRAQA AANAH LMAQI-NH2] (H-TKFTLSLDVPTNIMNC(Succinimide(1-Et,3-yl))LFNIAKAKNLRAQAAANAHLMAQI-NH2; N-terminus assumed)",−0.08
3,"CC[C@H](C)[C@H](NC(=O)[C@H](CCC(N)=O)NC(=O)[C@H](C)NC(=O)[C@H](CCSC)NC(=O)[C@H](CC(C)C)NC(=O)[C@H](Cc1c[nH]cn1)NC(=O)[C@H](C)NC(=O)[C@H](CC(N)=O)NC(=O)[C@H](CSC1CC(=O)N(CC)C1=O)NC(=O)[C@H](C)NC(=O)[C@H](C)NC(=O)[C@H](CCC(N)=O)NC(=O)[C@H](C)NC(=O)[C@H](CCCNC(=N)N)NC(=O)[C@H](CC(C)C)NC(=O)[C@H](CC(N)=O)NC(=O)[C@H](CCCCN)NC(=O)[C@H](C)NC(=O)[C@H](CCCCN)NC(=O)[C@H](C)NC(=O)[C@@H](NC(=O)[C@H](CC(N)=O)NC(=O)[C@H](Cc1ccccc1)NC(=O)[C@H](CC(C)C)NC(=O)[C@H](CC(C)C)NC(=O)[C@H](CC(N)=O)NC(=O)[C@H](CCSC)NC(=O)[C@@H](NC(=O)[C@H](CC(N)=O)NC(=O)[C@@H](NC(=O)[C@@H]1CCCN1C(=O)[C@@H](NC(=O)[C@H](CC(=O)O)NC(=O)[C@H](CC(C)C)NC(=O)[C@H](CO)NC(=O)[C@H](CC(C)C)NC(=O)[C@@H](NC(=O)[C@H](Cc1ccccc1)NC(=O)[C@H](CCCCN)NC(=O)[C@@H](N)[C@@H](C)O)[C@@H](C)O)C(C)C)[C@@H](C)O)[C@@H](C)CC)[C@@H](C)CC)C(N)=O (stereo partly drawn) [SEQ ID NO: 45, TKFTLSLDVPTNIMNLLFNIAKAKNLRAQAAC(-NES)NAH LMAQI-NH2] (H-TKFTLSLDVPTNIMNLLFNIAKAKNLRAQAAC(Succinimide(1-Et,3-yl))NAHLMAQI-NH2; N-terminus assumed)",−0.01
4,"TKFTLSLDVPTNIMNLLFCIAKAKNLRAQAAANAHLMAQI-NH2 [SEQ ID NO: 20, TKFTLSLDVPTNIMNLLFCIAKAKNLRAQAAANAHLMAQI-NH2]",0.52
5,"TKFTLSLDVPTNIMNLLFNIAKAKNLRCQAAANAHLMAQI-NH2 [SEQ ID NO: 29, TKFTLSLDVPTNIMNLLFNIAKAKNLRCQAAANAHLMAQI-NH2]",0.00
6,"CC[C@H](C)[C@H](NC(=O)[C@H](CCC(N)=O)NC(=O)[C@H](C)NC(=O)[C@H](CCSC)NC(=O)[C@H](CC(C)C)NC(=O)[C@H](Cc1c[nH]cn1)NC(=O)[C@H](C)NC(=O)[C@H](CC(N)=O)NC(=O)[C@H](C)NC(=O)[C@H](C)NC(=O)[C@H](C)NC(=O)[C@H](CCC(N)=O)NC(=O)[C@H](C)NC(=O)[C@H](CCCNC(=N)N)NC(=O)[C@H](CC(C)C)NC(=O)[C@H](CC(N)=O)NC(=O)[C@H](CSC1CC(=O)N(CC)C1=O)NC(=O)[C@H](C)NC(=O)[C@H](CCCCN)NC(=O)[C@H](C)NC(=O)[C@@H](NC(=O)[C@H](CC(N)=O)NC(=O)[C@H](Cc1ccccc1)NC(=O)[C@H](CC(C)C)NC(=O)[C@H](CC(C)C)NC(=O)[C@H](CC(N)=O)NC(=O)[C@H](CCSC)NC(=O)[C@@H](NC(=O)[C@H](CC(N)=O)NC(=O)[C@@H](NC(=O)[C@@H]1CCCN1C(=O)[C@@H](NC(=O)[C@H](CC(=O)O)NC(=O)[C@H](CC(C)C)NC(=O)[C@H](CO)NC(=O)[C@H](CC(C)C)NC(=O)[C@@H](NC(=O)[C@H](Cc1ccccc1)NC(=O)[C@H](CCCCN)NC(=O)[C@@H](N)[C@@H](C)O)[C@@H](C)O)C(C)C)[C@@H](C)O)[C@@H](C)CC)[C@@H](C)CC)C(N)=O (stereo partly drawn) [SEQ ID NO: 50, TKFTLSLDVPTNIMNLLFNIAKAC(-NES)N LRAQA AANAH LMAQI-NH2] (H-TKFTLSLDVPTNIMNLLFNIAKAC(Succinimide(1-Et,3-yl))NLRAQAAANAHLMAQI-NH2; N-terminus assumed)",−0.01
7,"TKFTLSLDVPTNIMNLLFNIAKAKNLRAQACANAHLMAQI-NH2 [SEQ ID NO: 32, TKFTLSLDVPTNIMNLLFNIAKAKNLRAQACANAHLMAQI-NH2]",0.11
8,"CKFTLSLDVPTNIMNLLFNIAKAKNLRAQAAANAHLMAQI-NH2 [SEQ ID NO: 2, CKFTLSLDVPTNIMNLLFNIAKAKNLRAQAAANAHLMAQI-NH2]",0.72

# From patent US10040838B2, “CRHR2 peptide agonists and uses thereof” (JANSSEN PHARMACEUTICA NV, priority 2008, dated 2018)
